Reference: patent US10328018B2, “Cosmetic use of the essential oil of Laserpitium siler L. against the signs of aging of the skin and as a skin antioxidant” (L'OREAL, priority 2012, dated 2019)
Marks after values point to notes of the source that are not given here.

Tests used:
type I procollagen = assay: Synthesis/secretion of type I procollagen by ELISA (CICP) on NHDF dermal fibroblasts; type: cell-based, human; details: 100 μM, 72 h, control without treatment=100%
Experimental: The study consists in evaluating, on NHDF (Normal Human Dermal Fibroblasts) dermal fibroblasts, the effects of the essential oil of […]. of example 1, at two concentrations, over the following parameters: • the synthesis of type I procollagen by ELISA (CICP, Cross-linked C-telopeptides of Type I collagen) after 72 h of contact, and • the abundance of MMP-1 secreted in the culture medium after 72 h of contact. The study was carried out on NHDF human dermal fibroblasts (ATCC, CRL-2522, origin: foreskin) cultured in monolayer in a medium of DMEM (Invitrogen, 31885-049) and antibiotics (penicillin/streptomycin, Invitrogen, 15140-122), and cultured in serum-free medium for studies on type I collagen and on MMP-1. The fibroblasts were seeded in 24-well plates, 24 h before the treatment with the test and reference elements. For the measurement of the synthesis/secretion of type I procollagen and for the quantification of MMP-1, the test elements and also the reference elements (TGF-β1 (Transforming Growth Factor-β1) for MMP-1 and vitamin C for CICP) were applied for 72 h in the absence of serum. The supernatants of the cultures were harvested after 72 h of treatment with the active agents and the reference element (in this case, vitamin C at 1000 μM). These were frozen at -20° C. until the day of the analysis. […]

MMP-1 = assay: Abundance of MMP-1 secreted in culture medium of NHDF dermal fibroblasts (pro-MMP-1 ELISA); type: cell-based, human; details: 2.5 ng/ml, 72 h, control without treatment=100%
Experimental: The study consists in evaluating, on NHDF (Normal Human Dermal Fibroblasts) dermal fibroblasts, the effects of the essential oil of Laserpitium Siler L. of example 1, at two concentrations, over the following parameters: • the synthesis of type I procollagen by ELISA (CICP, Cross-linked C-telopeptides of Type I collagen) after 72 h of contact, and • the abundance of MMP-1 secreted in the culture medium after 72 h of contact.
The study was carried out on NHDF human dermal fibroblasts (ATCC, CRL-2522, origin: foreskin) cultured in monolayer in a medium of DMEM (Invitrogen, 31885-049) and antibiotics (penicillin/streptomycin, Invitrogen, 15140-122), and cultured in serum-free medium for studies on type I collagen and on MMP-1.
The fibroblasts were seeded in 24-well plates, 24 h before the treatment with the test and reference elements.
For the measurement of the synthesis/secretion of type I procollagen and for the quantification of MMP-1, the test elements and also the reference elements (TGF-β1 (Transforming Growth Factor-β1) for MMP-1 and vitamin C for CICP) were applied for 72 h in the absence of serum. […]
The quantification of MMP-1 was carried out with a specific kit (Human pro-MMP-1 Quantikine ELISA, R&D System), according to the instructions given by the supplier.

Collagen IV = assay: Production of collagen IV by normal human keratinocytes (in situ immunolabeling, image analysis); type: cell-based; details: TGF-β at 10 ng/ml, NHEK, 72 hours
Experimental: The purpose of this study was to evaluate the effects of the essential oil of Laserpitium Siler L. according to example 1 on the dermo-epidermal junction marker (Coll. IV) modulated during aging by immunohistochemistry techniques.
• Culture medium: Keratinocyte-SFM supplemented with: • Epidermal Growth Factor (EGF) 0.25 ng/ml • Pituitary extract (PE) 25 μg/ml • Gentamicin 25 μg/ml • Test medium: Keratinocyte-SFM supplemented with: • Gentamicin 25 μg/ml
Normal human keratinocytes (NHEK—Ref: K341) were seeded and cultured in a culture medium (Keratinocyte-SFM for 24 hours). The culture medium was replaced by the test medium containing, or not containing (control), the test compounds or reference compounds (TGF-β at 10 ng/ml), then the cells were incubated for 72 hours at 37° C., 5% CO2.
After incubation, the culture medium was removed and the cells were rinsed, fixed and permeabilized.
The cells were then labeled with the primary antibody targeted against the protein of interest (Collagen IV).
The relative quantification was carried out by image analysis after in situ immuno labeling.
The image acquisition was carried out with a high-resolution imaging system: INCell Analyser™ 1000.

O=C1O[C@H]([C@@H](O)CO)C(O)=C1O [Vitamin C] was tested, and the “CICP (protein abundance)” value (type I procollagen) was 160%***.
“TGF-β1: Transforming Growth Factor-β1, reference element for MMP-1” was tested, and the “MMP-1 (protein abundance)” value (MMP-1) was 47%***.
“TGF-β: positive control / reference compound at 10 ng/ml in the collagen IV test” was tested, and the “increase in expression of collagen IV compared to the control” value (Collagen IV) was 594%.
